Laboratory results as given in PubChem BioAssay (NCI).
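Where inhibition never reached the appropriate level, the endpoint shown equals the highest concentration tested. Otherwise, values were interpolated linearly from a five-concentration, 48-hour dose response in 96-well plates. TGI is the concentration that stops growth completely.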

Columns and labels:
Assay in all cases: NCI-60 cell line screen, 48 h
U251 CNS = test system: U251 CNS
EKVX NSCLC = test system: EKVX NSCLC
ACHN renal = test system: ACHN renal
786-0 renal = test system: 786-0 renal
IGROV1 ovarian = test system: IGROV1 ovarian
SK-MEL-5 melanoma = test system: SK-MEL-5 melanoma
RPMI-8226 leukemia = test system: RPMI-8226 leukemia
HCT-15 colon = test system: HCT-15 colon
PC-3 prostate = test system: PC-3 prostate
HS 578T breast = test system: HS 578T breast

Structure (SMILES): COC(=O)CC(C(C(=O)OCc1ccccc1)C(C)O)N1C(=O)OC(c2ccccc2)C1c1ccccc1 (stereo not drawn)
- TGI (U251 CNS): > 100 µM
- TGI (EKVX NSCLC): > 100 µM
- TGI (ACHN renal): > 100 µM
- TGI (786-0 renal): > 100 µM
- TGI (IGROV1 ovarian): > 100 µM
- TGI (SK-MEL-5 melanoma): > 100 µM
- TGI (RPMI-8226 leukemia): > 100 µM
- TGI (HCT-15 colon): > 100 µM

Structure (SMILES): O=c1c2ccccc2nc(-c2ccccc2)n1NC(=S)Nc1ccc(Cl)cc1
- TGI (U251 CNS): > 100 µM
- TGI (ACHN renal): > 100 µM
- TGI (786-0 renal): > 100 µM
- TGI (IGROV1 ovarian): > 100 µM
- TGI (SK-MEL-5 melanoma): > 100 µM
- TGI (RPMI-8226 leukemia): > 100 µM
- TGI (HCT-15 colon): > 100 µM

Structure (SMILES): CO[C@H]1O[C@@H]2CO[C@@H](c3ccccc3)O[C@H]2[C@@H]2C/C=C\CCC[C@@]12O
- TGI (U251 CNS): 40.2 µM
- TGI (EKVX NSCLC): 45.8 µM
- TGI (ACHN renal): 38.1 µM
- TGI (786-0 renal): 33 µM
- TGI (IGROV1 ovarian): 96.2 µM
- TGI (SK-MEL-5 melanoma): 31.7 µM
- TGI (RPMI-8226 leukemia): 44.2 µM
- TGI (HCT-15 colon): 76.5 µM
- TGI (PC-3 prostate): 77.1 µM

Structure (SMILES): CCOc1ccc(N=NC2C(=O)N(C(=O)CC(=O)Nc3ccccc3)N=C2C)cc1 (stereo not drawn)
- TGI (U251 CNS): > 100 µM
- TGI (EKVX NSCLC): > 100 µM
- TGI (ACHN renal): > 100 µM
- TGI (786-0 renal): > 100 µM
- TGI (IGROV1 ovarian): > 100 µM
- TGI (SK-MEL-5 melanoma): > 100 µM
- TGI (HS 578T breast): 87.3 µM
- TGI (HCT-15 colon): > 100 µM
- TGI (PC-3 prostate): > 100 µM

Structure (SMILES): COC(=O)[C@@](C)(COC(=O)C(C)(C)C)NC(=O)OC(C)(C)C
- TGI (U251 CNS): > 100 µM
- TGI (EKVX NSCLC): > 100 µM
- TGI (ACHN renal): > 100 µM
- TGI (786-0 renal): > 100 µM
- TGI (IGROV1 ovarian): > 100 µM
- TGI (SK-MEL-5 melanoma): > 100 µM
- TGI (RPMI-8226 leukemia): > 100 µM
- TGI (HCT-15 colon): > 100 µM
- TGI (PC-3 prostate): > 100 µM

Structure (SMILES): O=S(=O)(O)c1cccc2cccc(N=Nc3c(O)ccc4ccccc34)c12
- TGI (U251 CNS): > 100 µM
- TGI (EKVX NSCLC): > 100 µM
- TGI (ACHN renal): > 100 µM
- TGI (786-0 renal): > 100 µM
- TGI (IGROV1 ovarian): > 100 µM
- TGI (SK-MEL-5 melanoma): > 100 µM
- TGI (HS 578T breast): > 100 µM
- TGI (HCT-15 colon): > 100 µM
- TGI (PC-3 prostate): > 100 µM

Structure (SMILES): CC1(C)C(CCO)CC1n1ccc(=O)[nH]c1=O (stereo not drawn)
- TGI (U251 CNS): > 100 µM
- TGI (EKVX NSCLC): > 100 µM
- TGI (ACHN renal): > 100 µM
- TGI (786-0 renal): > 100 µM
- TGI (SK-MEL-5 melanoma): > 100 µM
- TGI (HS 578T breast): > 100 µM
- TGI (HCT-15 colon): > 100 µM
- TGI (PC-3 prostate): > 100 µM

Structure (SMILES): Cc1ccc(S(=O)(=O)[C@@H](Cl)[C@H]2N=C(Cl)NN=C2c2ccccc2)cc1
- TGI (U251 CNS): 55.9 µM
- TGI (EKVX NSCLC): > 100 µM
- TGI (ACHN renal): > 100 µM
- TGI (786-0 renal): 85 µM
- TGI (IGROV1 ovarian): 55.4 µM
- TGI (SK-MEL-5 melanoma): 34.5 µM
- TGI (RPMI-8226 leukemia): > 100 µM
- TGI (HCT-15 colon): 54.5 µM
- TGI (PC-3 prostate): 39.5 µM

Structure (SMILES): COc1ccc2nc3c(c(NCCCN(C)C)c2c1)CCCC3
- TGI (U251 CNS): 30.1 µM
- TGI (EKVX NSCLC): 40.5 µM
- TGI (ACHN renal): 55.3 µM
- TGI (786-0 renal): 28.8 µM
- TGI (IGROV1 ovarian): 47 µM
- TGI (SK-MEL-5 melanoma): 29.2 µM
- TGI (RPMI-8226 leukemia): 27.2 µM
- TGI (HCT-15 colon): 33.9 µM

Structure (SMILES): CC(=O)NNc1nc(C)c(C(=O)NNC(=O)C(=O)Nc2cccc(C(C)=O)c2)s1
- TGI (U251 CNS): 90.4 µM
- TGI (EKVX NSCLC): > 100 µM
- TGI (ACHN renal): 30.8 µM
- TGI (IGROV1 ovarian): 60.7 µM
- TGI (SK-MEL-5 melanoma): > 100 µM
- TGI (RPMI-8226 leukemia): > 100 µM
- TGI (HCT-15 colon): 52.5 µM

Structure (SMILES): Cc1ccc(Sc2ccccc2[N+](=O)[O-])cc1
- TGI (U251 CNS): 61.7 µM
- TGI (EKVX NSCLC): > 100 µM
- TGI (ACHN renal): > 100 µM
- TGI (IGROV1 ovarian): > 100 µM
- TGI (SK-MEL-5 melanoma): 30.8 µM
- TGI (RPMI-8226 leukemia): > 100 µM
- TGI (HCT-15 colon): 62.2 µM

Structure (SMILES): CCC(COC(=O)CC[C@@H](NC(=O)C(C)NC(=O)C(C)OC1C(O)C(CO)OC(OCc2ccccc2)C1NC(C)=O)C(N)=O)NC1c2ccccc2Nc2cccc([N+](=O)[O-])c21 (stereo partly drawn)
- TGI (U251 CNS): > 100 µM
- TGI (EKVX NSCLC): > 100 µM
- TGI (ACHN renal): > 100 µM
- TGI (786-0 renal): > 100 µM
- TGI (IGROV1 ovarian): > 100 µM
- TGI (SK-MEL-5 melanoma): > 100 µM
- TGI (RPMI-8226 leukemia): > 100 µM
- TGI (HCT-15 colon): > 100 µM

Structure (SMILES): CCOC(=O)c1c(C)nc2c(c1-c1cn(-c3ccccc3)nc1-c1ccccc1)C(=O)c1ccccc1-2
- TGI (U251 CNS): > 100 µM
- TGI (EKVX NSCLC): > 100 µM
- TGI (786-0 renal): > 100 µM
- TGI (IGROV1 ovarian): > 100 µM
- TGI (SK-MEL-5 melanoma): > 100 µM
- TGI (HS 578T breast): > 100 µM
- TGI (HCT-15 colon): > 100 µM
- TGI (PC-3 prostate): > 100 µM

Structure (SMILES): CCOC(=O)c1cc2c(OCc3ccccc3)c(OC)cc3c2c(n1)N(c1ccc(OC)cc1)C(C)C3 (stereo not drawn)
- TGI (U251 CNS): > 50 µM
- TGI (EKVX NSCLC): > 50 µM
- TGI (ACHN renal): > 50 µM
- TGI (786-0 renal): > 50 µM
- TGI (IGROV1 ovarian): > 50 µM
- TGI (SK-MEL-5 melanoma): > 50 µM
- TGI (RPMI-8226 leukemia): > 50 µM
- TGI (HCT-15 colon): > 50 µM

Structure (SMILES): COC(=O)C(=O)C(C(=O)C(=O)Nc1cccc([N+](=O)[O-])c1)c1nc2ccc(Cl)cc2[nH]c1=O (stereo not drawn)
- TGI (U251 CNS): > 100 µM
- TGI (EKVX NSCLC): > 100 µM
- TGI (ACHN renal): > 100 µM
- TGI (786-0 renal): > 100 µM
- TGI (IGROV1 ovarian): > 100 µM
- TGI (SK-MEL-5 melanoma): > 100 µM
- TGI (HS 578T breast): > 100 µM
- TGI (HCT-15 colon): > 100 µM
- TGI (PC-3 prostate): > 100 µM

Structure (SMILES): COc1ccc2c(c1)OCCc1cn[nH]c1-2
- TGI (U251 CNS): > 100 µM
- TGI (EKVX NSCLC): 12.3 µM
- TGI (IGROV1 ovarian): 56.1 µM
- TGI (SK-MEL-5 melanoma): > 100 µM
- TGI (HCT-15 colon): > 100 µM

Structure (SMILES): CN(C(=O)c1ccc2c(c1)sc1c(=O)n(C)c3ccccc3c12)c1ccccc1
- TGI (U251 CNS): > 100 µM
- TGI (EKVX NSCLC): > 100 µM
- TGI (ACHN renal): > 100 µM
- TGI (786-0 renal): > 100 µM
- TGI (IGROV1 ovarian): > 100 µM
- TGI (SK-MEL-5 melanoma): > 100 µM
- TGI (HCT-15 colon): > 100 µM
- TGI (PC-3 prostate): > 100 µM

Structure (SMILES): COC(=O)C1=C(O)C(C(=O)OC)[C@]2(O)[C@@H](C(=O)OC)[C@H]1C[C@@H](c1ccccc1)[C@@H]2C(=O)OC (stereo partly drawn)
- TGI (U251 CNS): 30.7 µM
- TGI (EKVX NSCLC): 53.6 µM
- TGI (ACHN renal): 55.7 µM
- TGI (RPMI-8226 leukemia): 31.7 µM
- TGI (HS 578T breast): 76.8 µM
- TGI (HCT-15 colon): 26.9 µM

Structure (SMILES): N=C(N)SCCC(=O)CCSC(=N)N
- TGI (U251 CNS): > 100 µM
- TGI (ACHN renal): > 100 µM
- TGI (SK-MEL-5 melanoma): > 100 µM
- TGI (HS 578T breast): > 100 µM
- TGI (HCT-15 colon): > 100 µM
- TGI (PC-3 prostate): > 100 µM
